Laboratory results as given in patent US20250084087A1, “BICYCLIC HETEROCYCLES AS MRGPRX2 ANTAGONISTS” (Incyte Corporation, priority 2023, published 2025).

Legend:
[1] = biological target: T1, MRGPRX2 (Homo sapiens, UniProt Q96LB1); assay: MRGPRX2 β-Arrestin recruitment assay (PathHunter); type: cell-based; parameters: host or cells: CHO-K1 (PathHunter); conditions: PathHunter CHO-K1 MRGPRX2 β-Arrestin cell line; agonist Cortistatin 14 0.25 μM
T1 sequence (Q96LB1 1-330): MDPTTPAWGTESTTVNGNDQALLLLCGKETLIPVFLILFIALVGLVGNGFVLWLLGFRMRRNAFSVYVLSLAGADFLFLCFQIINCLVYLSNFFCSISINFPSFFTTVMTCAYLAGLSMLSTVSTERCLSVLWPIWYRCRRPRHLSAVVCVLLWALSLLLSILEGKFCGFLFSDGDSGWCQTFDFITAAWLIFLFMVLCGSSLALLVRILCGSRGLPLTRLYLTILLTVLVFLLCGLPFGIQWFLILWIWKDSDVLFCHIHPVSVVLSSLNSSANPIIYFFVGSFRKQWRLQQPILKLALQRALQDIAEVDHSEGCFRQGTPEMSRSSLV
Text: Example C: MRGPRX2 P-Arrestin Assay
This assay measures compound inhibition of P-Arrestin recruitment, which is part of the G protein-independent pathway that results from the ligand-activated GPCR phosphorylation by specific GPCR kinases. The PathHunter CHO-K1 MRPGRX2 B-Arrestin Cell line stably expressing ProLink tagged MRGPRX2 and Enzyme Acceptor Tagged B-Arrestin was purchased from Eurofins DiscoverX, (Fremont, CA).
The cells were maintained in culture medium from the Europhins DiscoverX Cell Culture Kit-107 which includes FBS, hygromycin B and G418. For the assay, the cells were harvested and were resuspended with Cell Plating Reagent 2 (Eurofins DiscoverX). Cells were added 10000 cells in 25 μL/well to a 384-well black cell culture plate (Greiner VWR, Radnor, PA) which contained 125 nL/well of compound at a selected serially diluted concentration range or DMSO. The plate was incubated at 37° C. with 5% CO2 for 1 h. 2 μL/well of agonist Cortistatin 14 was diluted in Protein Dilution Buffer, (Eurofins DiscoverX) for a final concentration of 0.25 μM, was added and the plate was incubated at 37° C. with 5% CO2 for 90 min. 14 μL/well of Detection Reagent Mix (PathHunter Detection Kit, Eurofins DiscoverX) was added to the plates and further incubated for 1 h in the dark. Plates were read on the PHERAstar microplate reader (BMG Labtech Cary, NC) measuring luminescence 0.1 to 1 second per well. Data was normalized using DMSO only wells and wells with high concentration of reference antagonist as controls. Compound IC50 curves were globally fitted with 3- or 4-parameter Hill equation in a Genedata Screener (Genedata Basel, Switzerland).

[2] = biological target: T1, MRGPRX2; assay: MRGPRX2 IP1 HTRF assay; type: cell-based; parameters: host or cells: CHO-K1; conditions: CHO-K1 cells stably expressing human MRGPRX2; IP1 accumulation; agonist Cortistatin 14 1 μM
Text: Example B: MRGPRX2 IP1 HTRF Assay
This assay measures compound inhibition of myo-Inositol 1 phosphate (IP1) accumulation in CHO-K1 cells. Chinese hamster ovary (CHO-K1) cells stably expressing human MRGPRX2 were purchased from GenScript (Piscataway, NJ).
For the HTRF IP1 determination, an IP-One GqKit (Perkin Elmer Cisbio, Waltham, MA), which includes all reagents and buffers in this protocol, was used. The cells were maintained in culture medium (Ham's F-12K) containing 10% (v/v) FBS, and 200 μg/mL Zeocin. For the assay, the cells were harvested and resuspended in culture medium with 2% FBS and without Zeocin, then were passed through a 40 μm filter. Cells were added at 20000 cells in a 5 μL/well to a 384-well white small volume cell culture plate (Greiner VWR, Radnor, PA) which contained 50 nL/well of test compound serially diluted at a selected concentration range in DMSO. 5 μL/well of prepared 2× Stimulation Buffer2 was then added to plates and was incubated at 37° C. with 5% CO2 for 1 h. 5 μL/well of agonist Cortistatin 14 (Bio-TechneR&D Systems, Minneapolis, MN) in 1× Stimulation Buffer2, for a 1 μM final concentration, was then added to plates and incubated at 37° C. with 5% CO2 for 1 h. 6 μL/well of 1:20 diluted Detection Reagent Mix (d2 and Cryptate) was added to the plates and incubated for 1 h in the dark. Plates were read on the PHERAstar microplate reader (BMG Labtech Cary, NC) to determine the HTRF ratio of the acceptor and donor emission signals. The IP1 concentrations were calculated from a standard curve following the IP-One GQ kit instructions. Wells with DMSO only and wells with high concentration of reference antagonist were used as controls for normalization. Compound IC50 curves were globally fitted with 3- or 4-parameter Hill equation in a Genedata Screener (Genedata Basel, Switzerland).

Structure (SMILES)	IC50 [1]	IC50 [2]
OC1CCC(CNc2cc(C(F)(F)F)nc3cc(Br)nn23)(c2ccncc2)C1 (racemic) [Example 86, 3-(((2-Bromo-5-(trifluoromethyl)pyrazolo[1,5-a]pyrimidin-7-yl)amino)methyl)-3-(pyridin-4-yl)cyclopentan-1-ol]	0.1 to 100 nM	
OCC1CC1(CNc1cc(C(F)(F)F)nc2cc(Br)nn12)c1ccccn1 (single isomer, unassigned) [Example 88, (2-(((2-Bromo-5-(trifluoromethyl)pyrazolo[1,5-a]pyrimidin-7-yl)amino)methyl)-2-(pyridin-2-yl)cyclopropyl)methanol]	> 1000 nM	
OCC1CC1(CNc1cc(C(F)(F)F)nc2cc(Br)nn12)c1ccccc1 (single isomer, unassigned) [Example 89, (2-(((2-Bromo-5-(trifluoromethyl)pyrazolo[1,5-a]pyrimidin-7-yl)amino)methyl)-2-phenylcyclopropyl)methanol]	100 to 1000 nM	
NC(=O)N1CCC(CNc2cc(Cl)nc3nc(C(F)(F)F)cn23)(c2ccccc2)CC1 [Example 1, 4-(((7-Chloro-2-(trifluoromethyl)imidazo[1,2-a]pyrimidin-5-yl)amino)methyl)-4-phenylpiperidine-1-carboxamide]		100 to 1000 nM
NC(=O)N1CCC(CNc2nccc3nc(C(F)(F)F)cn23)(c2ccccc2)CC1 [Example 2, 4-Phenyl-4-(((2-(trifluoromethyl)imidazo[1,2-c]pyrimidin-5-yl)amino)methyl)piperidine-1-carboxamide]		100 to 1000 nM
CNC(=O)N1CC(CNc2cc(Cl)cc3nc(C(F)(F)F)cn23)(c2ccc(F)cn2)C1 [Example 25, 3-(((7-Chloro-2-(trifluoromethyl)imidazo[1,2-a]pyridin-5-yl)amino)methyl)-3-(5-fluoropyridin-2-yl)-N-methylazetidine-1-carboxamide]	0.1 to 100 nM	0.1 to 100 nM
CNC(=O)N1CC(CNc2cc(C(F)(F)F)nc3cc(C(F)(F)F)nn23)(n2cc(F)cn2)C1 [Example 41, 3-(((2,5-Bis(trifluoromethyl)pyrazolo[1,5-a]pyrimidin-7-yl)amino)methyl)-3-(4-fluoro-1H-pyrazol-1-yl)-N-methylazetidine-1-carboxamide]	0.1 to 100 nM	0.1 to 100 nM
Nc1nc(N2CCC(CNc3cc(C(F)F)nc4cc(C(F)(F)F)nn34)(c3ccccc3)CC2)n[nH]1 [Example 42, N-((1-(5-Amino-1H-1,2,4-triazol-3-yl)-4-phenylpiperidin-4-yl)methyl)-5-(difluoromethyl)-2-(trifluoromethyl)pyrazolo[1,5-a]pyrimidin-7-amine]	0.1 to 100 nM	0.1 to 100 nM
O=c1cc(N2CC(CNc3cc(C(F)(F)F)nc4cc(C(F)(F)F)nn34)(c3ccc(F)cc3)C2)ccn1C1CC1 [Example 51, 4-(3-(((2,5-Bis(trifluoromethyl)pyrazolo[1,5-a]pyrimidin-7-yl)amino)methyl)-3-(4-fluorophenyl)azetidin-1-yl)-1-cyclopropylpyridin-2(1H)-one]	0.1 to 100 nM	
C[C@]1(O)C[C@@H](NC(=O)N2CC(CNc3cc(C(F)(F)F)nc4cc(C(F)(F)F)nn34)(c3ccc(F)cc3)C2)C1 [Example 52, 3-(((2,5-Bis(trifluoromethyl)pyrazolo[1,5-a]pyrimidin-7-yl)amino)methyl)-3-(4-fluorophenyl)-N-((1s,3s)-3-hydroxy-3-methylcyclobutyl)azetidine-1-carboxamide]	0.1 to 100 nM	0.1 to 100 nM
N#CC12CC(NC(=O)N3CC(CNc4cc(C(F)(F)F)nc5cc(C(F)(F)F)nn45)(c4ccc(F)cn4)C3)(C1)C2 [Example 64, 3-(((2,5-Bis(trifluoromethyl)pyrazolo[1,5-a]pyrimidin-7-yl)amino)methyl)-N-(3-cyanobicyclo[1.1.1]pentan-1-yl)-3-(5-fluoropyridin-2-yl)azetidine-1-carboxamide]	0.1 to 100 nM	
[2H]C([2H])([2H])c1cc(NCC2(c3ccc(F)cc3)CN(C(N)=O)C2)n2nc(C(F)(F)F)cc2n1 [Example 70, 3-(4-Fluorophenyl)-3-(((5-(methyl-d3)-2-(trifluoromethyl)pyrazolo[1,5-a]pyrimidin-7-yl)amino)methyl)azetidine-1-carboxamide]	0.1 to 100 nM	
CCc1cc(NCC2(c3ccc(F)cc3)CCC(N)(C#N)CC2)n2nc(C(F)(F)F)cc2n1 (stereo not shown) [Example 72, 1-Amino-4-(((5-ethyl-2-(trifluoromethyl)pyrazolo[1,5-a]pyrimidin-7-yl)amino)methyl)-4-(4-fluorophenyl)cyclohexane-1-carbonitrile]	0.1 to 100 nM	
CO[C@H]1C[C@](CNc2cc(C(F)(F)F)nc3cc(C(F)(F)F)nn23)(c2ccccc2)C1 [Example 75, N-(((1s,3s)-3-Methoxy-1-phenylcyclobutyl)methyl)-2,5-bis(trifluoromethyl)pyrazolo[1,5-a]pyrimidin-7-amine]	0.1 to 100 nM	
NC(=O)C1(N)CC(CNc2cc(C(F)(F)F)nc3cc(C(F)(F)F)nn23)(c2ccc(F)cc2)C1 (stereo not shown) [Example 76, 1-Amino-3-(((2,5-bis(trifluoromethyl)pyrazolo[1,5-a]pyrimidin-7-yl)amino)methyl)-3-(4-fluorophenyl)cyclobutane-1-carboxamide]	0.1 to 100 nM	
NC(=O)N1CC(CNc2cc(Cl)cc3nc(C(F)(F)F)nn23)(c2ccccc2)C1 [Example 79, 3-(((7-Chloro-2-(trifluoromethyl)-[1,2,4]triazolo[1,5-a]pyridin-5-yl)amino)methyl)-3-phenylazetidine-1-carboxamide]	0.1 to 100 nM	
OC1CC(CNc2cc(C(F)(F)F)nc3nc(C(F)(F)F)cn23)(c2ccc(F)cc2)C1 (stereo not shown) [Example 80, 3-(((2,7-Bis(trifluoromethyl)imidazo[1,2-a]pyrimidin-5-yl)amino)methyl)-3-(4-fluorophenyl)cyclobutan-1-ol]	0.1 to 100 nM	
CNC1CCC(CNc2cc(C(F)(F)F)nc3cc(Br)nn23)(c2cccnc2)C1 (stereo not shown) [Example 87, 2-Bromo-N-((3-(methylamino)-1-(pyridin-3-yl)cyclopentyl)methyl)-5-(trifluoromethyl)pyrazolo[1,5-a]pyrimidin-7-amine]	0.1 to 100 nM	
Cc1ccc(C2(CNc3cc(C(F)(F)F)nc4cc(C(F)(F)F)nn34)CN(S(N)(=O)=O)C2)cn1 [Example 97, 3-(((2,5-Bis(trifluoromethyl)pyrazolo[1,5-a]pyrimidin-7-yl)amino)methyl)-3-(6-methylpyridin-3-yl)azetidine-1-sulfonamide]	100 to 1000 nM	
[2H]C([2H])([2H])NC(=O)N1CC(CNc2cc(C3CC3)nc3cc(C(F)(F)F)nn23)(c2ccc(C(=O)N(C)C)cc2)C1 [Example 107, 3-(((5-Cyclopropyl-2-(trifluoromethyl)pyrazolo[1,5-a]pyrimidin-7-yl)amino)methyl)-3-(4-(dimethylcarbamoyl)phenyl)-N-(methyl-d3)azetidine-1-carboxamide]	> 1000 nM	
[2H]C([2H])([2H])NC(=O)N1CC(CNc2cc(C3CCC3)nc3cc(C(F)(F)F)nn23)(c2ccc(F)cc2)C1 [Example 108, 3-(((5-Cyclobutyl-2-(trifluoromethyl)pyrazolo[1,5-a]pyrimidin-7-yl)amino)methyl)-3-(4-fluorophenyl)-N-(methyl-d3)azetidine-1-carboxamide]	100 to 1000 nM	
